Measured values from ChEMBL document CHEMBL1156970, “Endoxifen is a new potent inhibitor of PKC: a potential therapeutic agent for bipolar disorder” (Bioorg Med Chem Lett, 2010).
Activity calls are given as the source filed them. No cut-off for these calls is given here.

How the values were obtained:
[1] = Inhibition of PKC at 0.2 mM after 90 mins by ELISA
[2] = Inhibition of PKC at 0.1 mM after 90 mins by ELISA
[3] = Inhibition of PKC at 0.025 to 0.05 mM after 90 mins by ELISA
[4] = Inhibition of PKC at 0.025 mM after 90 mins by ELISA
Rattus norvegicus = assay: Toxicity in rat at 4 mg/kg, po after 28 days; assay type: organism-based; parameters: dose 4 mg/kg, route oral; conditions: in vivo, 672 h
Mus musculus = assay: Toxicity in mouse at 8 mg/kg, po after 28 days; assay type: organism-based; parameters: dose 8 mg/kg, route oral; conditions: in vivo, 672 h
[5] = Inhibition of PKC after 90 mins by ELISA

Compound	inhibition [1] [%]	inhibition [2] [%]	inhibition [3]	inhibition [4] [%]	Activity (Rattus norvegicus)	Activity (Mus musculus)	inhibition [5]
CC/C(=C(\c1ccccc1)c1ccc(OCCN(C)C)cc1)c1ccccc1	25	14	inactive				
CC/C(=C(\c1ccc(O)cc1)c1ccc(OCCNC)cc1)c1ccccc1 [ENDOXIFEN]	78			12	Non-toxic	Non-toxic	Dose-dependent effect
